Data as given in patent US5786332A, “Cytokine restraining agents and methods of use in pathologies and conditions associated with altered cytokine levels” (Trega Biosciences, Inc., priority 1995, dated 1998).

What was measured:
Type in all cases: in vivo
IL-6 = assay: Reduction of LPS-induced Interleukin-6 levels in mice (ELISA); conditions: 300 μg/mouse; LPS-treated mice vs untreated control
Protocol: Balb/c mice were grouped and treated as described in Example III, above. Blood samples were obtained from the orbital sinus at various times up to six hr and serum was collected and diluted as described above. A 100 μl aliquot was assayed for IL-6 levels using an IL-6-specific ELISA by a modification of the method of Starnes et al., J. Immunol. 145:4185-4194 (1990), which is incorporated herein by reference.
The mean (+/-SEM) IL-6 level in six mice from each group was determined and the percent reduction in IL-6 was calculated.

Balb/c mice = assay: Lipopolysaccharide-induced lethality (IP dosing); conditions: 11 × 300 μg/mouse IP (3.3 mg total); 0.6 mg LPS
Protocol: These experiments were performed based on information reported by Rivier et al., Endocrinology 125:2800-2805 (1989), which is incorporated herein by reference. Adult female Balb/c mice were provided food and water ad libitum. Mice were injected IP every four hr for 40 hr with 30 to 300 μg EX-2, EX-3 or EX-4 in 0.2 ml saline (treated group) or with 0.2 ml saline, alone (control group) (10 mice per group). Immediately following the first injection, 0.6 mg LPS endotoxin in 0.2 ml saline was administered to each mouse. Following LPS injection, EX-2 or saline was administered to the treated mice or the control mice, respectively, every 4 hr for 36 hr.

Sprague-Dawley rats [1] = assay: Interleukin-1β-induced hyperalgesia (paw pressure); conditions: 1 μg IP; 2 hr after IL-1β intra plantar
Protocol: These experiments were performed using a modification of the methods described by Poole et al., Br. J. Pharmacol. 106:489-492 (1992); Follenfant et al., Br. J. Pharmacol. 98:41-43 (1989); and Randall and Sellito, Arch. Internatl. Pharmacodyn. 111:409-419 (1957), each of which is incorporated herein by reference. Adult male Sprague-Dawley rats (175-275 g) were tested for hyperalgesia by a paw pressure technique using variable pressure instrumentation (IITC Life Sciences; Woodland Hills, Calif.). Rats were acclimated to the housing environment and were handled for three days prior to beginning a training session. On the day before the hyperalgesia experiments was to begin, each rat was placed into a sock and two variable paw pressure tests were performed 15 min apart.
Approximately 5-10% of the rats were non-responders and were eliminated from further experiments.
Animals that responded to the paw pressure were pretreated by IP injection of various concentrations of EX-2 in a volume of 1 ml/kg (treated) or saline, alone (control). After 20 min, 100 μl of IL-1β (1U/100 μl) was administered to rats via intra plantar injection. Two hr after IL-1 administration, rats were subjected to two additional paw pressure tests and the increase in mm Hg of pressure that could be applied to the EX-2-treated rats as compared to the control rats was determined.

[2] = tested on: Harlan Sprague-Dawley rats; assay: Adult respiratory distress syndrome: LPS-induced PMN count in broncho-alveolar lavage; conditions: 100 μg/kg IP; LPS 5 mg/kg intratracheal; lavage at 6 hr
Protocol: These experiments were performed using a modification of the methods described by Ulich et al., Am. J. Pathol. 141:61-68 (1992) and by Wheelden et al., Lab. Animals 26:29-37 (1992), each of which is incorporated herein by reference. Male Harlan Sprague-Dawley rats were anesthetized using a mixture of 70 mg/kg ketamine and 6 mg/kg rompun injected IP. A 2-3 cm incision was made in the neck of each anesthetized rat and its trachea was exposed by blunt dissection of the surrounding soft tissue. The rats were suspended on a near vertical slab and intratracheal injections were performed by inserting into the exposed trachea, at a point 1 cm posterior to the larynx, a 25 G×1/2 inch needle attached to a 1 cc syringe.
Each rat received 0.5 ml/kg of saline or 0.5 ml/kg of 10 mg/ml (5 mg/kg) LPS endotoxin via slow intratracheal administration. Immediately following administration of the LPS endotoxin, rats were injected IP with 1 ml/kg of either saline (control) or saline containing various concentrations of EX-2 (treated). The rats were maintained in the elevated position for 1-2 min to facilitate distribution of the LPS and saline into the lung. The incisions were closed and the rats were allowed to recover. […]
neutrophils) in the broncho-alveolar lavage fluid were counted in the EX-2-treated rats and compared with the number in the control rats.

Sprague-Dawley rats [3] = assay: Streptozotocin-induced diabetes, plasma glucose; conditions: STZ 65 mg/kg iv; EX-2 150 μg/kg every 8 hr for 72 hr
Protocol: B. Induced Diabetes: Male Sprague-Dawley rats were given 65 mg/kg of streptozotocin (STZ) intravenously through the tall vein. Rats were divided into two groups. The first group was administered EX-2, 150 μg/kg every 8 hr for 72 hr and the second group was a control. Blood samples were withdrawn under ether anesthesia every 8 hr for the first 72 hr, then every 12 hr or 24 hr until the end of the observation period. Plasma samples were assayed for glucose using a glucose assay kit (Trinder, Sigma Chemical Co.). As shown in Table VI below EX-2 effect a 72% reduction in blood glucose levels.

Sprague-Dawley rats [4] = assay: Nephrotoxic serum glomerulonephritis, albuminuria; conditions: EX-2 100 μg/kg per injection 3 times per day; 24 hr albumin excretion
Protocol: C. Glomerulonephritis: Male Sprague-Dawley rats (weight 194-248 g) were immunized by subcutaneous injection of 1 mg normal rabbit IgG (Sigma Chemical Co.) in Freund's complete adjuvant (Sigma Chemical Co.). EX-2 was administered 3 times per day (100 μg/kg per injection) throughout the duration of the experiment. Seven days later, the rats were injected with 1.5 ml of nephrotoxic serum iv via dorsal penile vein. Urine, plasma, and serum were collected before injection of nephrotoxic serum at 4, 6, 24, 48, and 96 hr thereafter. […] Albuminuria was quantified by immunoelectrophoresis.

Ac-Nle-Gln-His-(D)Phe-Arg-(D)Trp-Gly-NH2 [EX-2]
Reduction in IL-6 levels (IL-6): 60%
Inhibition of LPS-induced Lethality (increase in survival vs control) (Balb/c mice): 83%
Reduction in IL-1-induced Hyperalgesia (increase in tolerated paw pressure vs control) (Sprague-Dawley rats [1]): 125%
Reduction in LPS-induced PMN Count [2]: 58%
% Reduction of induced increase in Blood Glucose (mg/dl), STZ Diabetes (Sprague-Dawley rats [3]): 72%
% Reduction of induced increase in Albumin (mg/day), Glomerulonephritis (Sprague-Dawley rats [4]): 62%
